Assay results published in PubChem BioAssay AID2060493 (Molecular Pharmacology Branch, DTP, NCI, 2025).

Test system: 616215-338-R-J1-PDC tumor spheroids, viability
Assay: Anticancer human tumor 616215-338-R-J1-PDC patient-derived colon adenocarcinoma cell line growth inhibition [GQUAD]
Conditions: spheroids with HUVEC and MSC; for IC50: curve of first compound; for viability, T/C: stronger effect = lower value
Description: DNA G-quadruplex Stabilizer Agents in Combinations in Complex Spheroids
A high-throughput screen of multi-cell type tumor spheroids was designed to identify active combinations of DNA G-quadruplex stabilizer agents and targeted small molecules. Complex spheroids include a stromal component modeled by human endothelial cells (HUVEC) and fibroblasts modeled by human mesenchymal stem cells (MSCs). The concentration ranges selected for each drug and investigational agent were based upon clinically achievable concentrations if the clinical Cmax of the agent was known.
Compounds. The drugs and investigational agents: pidnarulex (CX-5461; NSC782164), APTO-253 (NSC789042), BRACO-19 (NSC847499), peposertib (NSC802822), ceralasertib (NSC780249), elimusertib (NSC800525), camonsertib (NSC841442), AZD-1390 (NSC803789), olaparib (NSC753686), talazoparib (NSC767125), ART-558 (NSC835418), sotorasib (NSC818433), MRTX-1133 (NSC836407), SN-38 (NSC673596), topotecan (NSC609699), etoposide (NSC141540), doxorubicin (NSC123127), gemcitabine (NSC613327), 5-fluorouracil (NSC19893), paclitaxel (NSC125973), vemurafenib (NSC761431), panobinostat (NSC761190), R-306465 (JNJ-16241199; NSC773264), adavosertib (NSC754352), TP-3654 (NSC805149), carboplatin (NSC241240), KSQ-4279 (NSC840948), and staurosporine (NSC755774) were obtained from the National Cancer Institute (NCI) Developmental Therapeutics Program Chemical Repository (34). The FDA-approved anticancer drug set is available from the NCI Developmental Therapeutics Program. […] The stock solutions were prepared in dimethyl sulfoxide (DMSO, Sigma-Aldrich, St. Louis, MO, cat. D2650) at 800-fold the tested concentration and stored at -70 degrees C prior to their use. All drugs and investigational agents were tested over a range starting from a high concentration at or near the clinical Cmax and decreasing in half-log increments. If the clinical Cmax for an agent had not been determined, the highest concentration tested was 10 microM.
2.3 Cell Culture. All cells were maintained in an incubator at 37 degrees C and 5% CO2 with 95% humidity. The PDC lines were cultured according to standard operating procedures established by the NCI PDMR. All PDCs were thawed and cultured in Matrigel-coated flasks prepared with a working solution of 1X Ham's F-12 nutrient mix, without supplementation (Invitrogen, cat. 11765054), 100 U/mL penicillin-streptomycin (Invitrogen, cat. 15140122), and 2.5% Matrigel (Corning Inc., cat. 354248) for the first three passages. The 857933-349-R-J2-PDC line was cultured in 6C/Colon 1B media, which includes advanced DMEM/F-12 (Thermo Fisher Scientific, cat. 12634028), 10 mM HEPES (Thermo Fisher Scientific, cat. 15630080), 1X GlutaMAX supplement (Thermo Fisher Scientific, cat. 35050061), 0.1 mg/mL primocin (InvivoGen, cat. ant-pm-2), 10% defined fetal bovine serum, heat inactivated (HyClone Laboratories Inc., cat. SH30070.03HI), 50% L-WRN conditioned media (ATCC, cat. CRL-3276), 1.25 mM N-Acetyl-L-cysteine (Sigma-Aldrich, cat. A9165), 10 mM nicotinamide (Sigma-Aldrich, cat. N0636), 1X B-27 supplement (Thermo Fisher Scientific, cat. 17504044), 1X N-2 supplement (Thermo Fisher Scientific, cat. 17502048), 10 microM Y-27632 dihydrochloride (Tocris Bioscience, cat. 1254), and 50 ng/mL human EGF recombinant protein (Thermo Fisher Scientific, cat. PHG0311). The 485176-168-R4-J1-PDC line was cultured in Panc media, which includes all 6C/Colon 1B media components plus 100 ng/mL human FGF-10 (Thermo Fisher Scientific, cat. 100-26), 500 nM SB-431542 (Selleckchem, cat. S1067), and gastrin (Tocris, cat. 3006).
[…]

[1] = second compound 0.0316 µM, first compound 0.0316 µM
[2] = second compound 0.0316 µM, first compound 0.1 µM
[3] = second compound 0.0316 µM, first compound 0.316 µM
[4] = second compound 0.0316 µM, first compound 1 µM
[5] = second compound 0.0316 µM, first compound 3.16 µM
[6] = second compound 0.0316 µM, first compound 10 µM
[7] = second compound 0.1 µM, first compound 0.0316 µM
[8] = second compound 0.1 µM, first compound 0.1 µM
[9] = second compound 0.1 µM, first compound 0.316 µM
[10] = second compound 0.1 µM, first compound 1 µM
[11] = second compound 0.1 µM, first compound 3.16 µM
[12] = second compound 0.1 µM, first compound 10 µM
[13] = second compound 0.316 µM, first compound 0.0316 µM
[14] = second compound 0.316 µM, first compound 0.1 µM
[15] = second compound 0.316 µM, first compound 0.316 µM
[16] = second compound 0.316 µM, first compound 1 µM
[17] = second compound 0.316 µM, first compound 3.16 µM
[18] = second compound 0.316 µM, first compound 10 µM
[19] = second compound 1 µM, first compound 0.0316 µM
[20] = second compound 1 µM, first compound 0.1 µM
[21] = second compound 1 µM, first compound 0.316 µM
[22] = second compound 1 µM, first compound 1 µM
[23] = second compound 1 µM, first compound 3.16 µM
[24] = second compound 1 µM, first compound 10 µM
[25] = second compound 3.16 µM, first compound 0.0316 µM
[26] = second compound 3.16 µM, first compound 0.1 µM
[27] = second compound 3.16 µM, first compound 0.316 µM
[28] = second compound 3.16 µM, first compound 1 µM
[29] = second compound 3.16 µM, first compound 3.16 µM
[30] = second compound 3.16 µM, first compound 10 µM
[31] = second compound 10 µM, first compound 0.0316 µM
[32] = second compound 10 µM, first compound 0.1 µM
[33] = second compound 10 µM, first compound 0.316 µM
[34] = second compound 10 µM, first compound 1 µM
[35] = second compound 10 µM, first compound 3.16 µM
[36] = second compound 10 µM, first compound 10 µM
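Further: spheroids exposed to agents for 7 days before readout.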
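Wherever viability, T/C is given: percent viability relative to DMSO vehicle control wells taken as 100%.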

C=CCn1c(=O)c2cnc(Nc3ccc(N4CCN(C)CC4)cc3)nc2n1-c1cccc(C(C)(C)O)n1 + CN(C)c1ccc(Nc2c3ccc(NC(=O)CCN4CCCC4)cc3nc3cc(NC(=O)CCN4CCCC4)ccc23)cc1
IC50 (second compound 0.0316 µM): 344 nM
IC50 (second compound 0.1 µM): 300 nM
IC50 (second compound 0.316 µM): 347 nM
IC50 (second compound 1 µM): 281 nM
IC50 (second compound 3.16 µM): 308 nM
IC50 (second compound 10 µM): 335 nM
viability, T/C [1]: 108%
viability, T/C [2]: 100%
viability, T/C [3]: 50.6%
viability, T/C [4]: 23%
viability, T/C [5]: 12.6%
viability, T/C [6]: 11.5%
viability, T/C [7]: 107%
viability, T/C [8]: 109%
viability, T/C [9]: 46.9%
viability, T/C [10]: 23.5%
viability, T/C [11]: 13.4%
viability, T/C [12]: 12%
viability, T/C [13]: 105%
viability, T/C [14]: 107%
viability, T/C [15]: 52.2%
viability, T/C [16]: 23.3%
viability, T/C [17]: 13.1%
viability, T/C [18]: 14.7%
viability, T/C [19]: 98.2%
viability, T/C [20]: 99.5%
viability, T/C [21]: 44.1%
viability, T/C [22]: 24.4%
viability, T/C [23]: 13.7%
viability, T/C [24]: 14.3%
viability, T/C [25]: 100%
viability, T/C [26]: 96.9%
viability, T/C [27]: 46.4%
viability, T/C [28]: 26%
viability, T/C [29]: 14.5%
viability, T/C [30]: 10.6%
viability, T/C [31]: 87.9%
viability, T/C [32]: 90.3%
viability, T/C [33]: 49%
viability, T/C [34]: 19.9%
viability, T/C [35]: 11.9%
viability, T/C [36]: 3.42%

O=c1[nH]cc(F)c(=O)[nH]1 + CN(C)c1ccc(Nc2c3ccc(NC(=O)CCN4CCCC4)cc3nc3cc(NC(=O)CCN4CCCC4)ccc23)cc1
IC50 (second compound 0.0316 µM): 663 nM
IC50 (second compound 0.1 µM): 505 nM
IC50 (second compound 0.316 µM): 455 nM
IC50 (second compound 1 µM): 562 nM
IC50 (second compound 3.16 µM): 383 nM
IC50 (second compound 10 µM): 373 nM
viability, T/C [1]: 98.4%
viability, T/C [2]: 89.3%
viability, T/C [3]: 66.6%
viability, T/C [4]: 39.8%
viability, T/C [5]: 36.4%
viability, T/C [6]: 32.8%
viability, T/C [7]: 95.3%
viability, T/C [8]: 94.3%
viability, T/C [9]: 58.8%
viability, T/C [10]: 38%
viability, T/C [11]: 38.1%
viability, T/C [12]: 33.9%
viability, T/C [13]: 93.9%
viability, T/C [14]: 81.2%
viability, T/C [15]: 54.5%
viability, T/C [16]: 39.6%
viability, T/C [17]: 36.7%
viability, T/C [18]: 32.8%
viability, T/C [19]: 101%
viability, T/C [20]: 86.4%
viability, T/C [21]: 59.2%
viability, T/C [22]: 41.6%
viability, T/C [23]: 31.2%
viability, T/C [24]: 33.6%
viability, T/C [25]: 84.5%
viability, T/C [26]: 83.8%
viability, T/C [27]: 52.5%
viability, T/C [28]: 38%
viability, T/C [29]: 32%
viability, T/C [30]: 34%
viability, T/C [31]: 87.6%
viability, T/C [32]: 71.3%
viability, T/C [33]: 52.4%
viability, T/C [34]: 38.9%
viability, T/C [35]: 38.3%
viability, T/C [36]: 35.5%
